Reference: US9375000B2, “Pesticidal arylpyrrolidines” (Bayer Intellectual Property GmbH, priority 2011, dated 2016)

Columns and labels:
Format in all cases: in vivo
[1] = system: Two-Spotted Spider Mite (Tetranychus urticae); assay: Two-spotted spider mite (Tetranychus urticae) spray test on kidney bean; settings: after 7 days
Protocol: (§1) Unless not mentioned otherwise, the test solutions were prepared as follows:
(§2) Solvent: 3 parts by weight Dimethylformamide
(§3) Emulsifier: 1 part by weight Polyoxyethylene alkyl phenyl ether
(§4) In order to make an appropriate formulation of an active compound, 1 part by weight of the active compound is mixed with the above mentioned amount of solvent and emulsifier and the mixture is diluted with water to a prescribed concentration. Ammonium salt or ammonium salt and penetration enhancer in a dosage of 1000 ppm are added to the desired concentration if necessary.
50 to 100 adult mites of Tetranychus urticae were inoculated to leaves of kidney bean at two-leaf stage planted in a pot of 6 cm in diameter. After one day, test solution at the appropriate concentration was sprayed thereon in a sufficient amount using a spray gun. After the spraying, the plant pot was placed inside a greenhouse, and after 7 days, the acaricidal activity was calculated. An acaricidal activity of 100% means that all mites were killed, whereas an acaricidal activity of 0% means that no mite was killed.

[2] = system: Cucurbit Leaf Beetle (Aulacophora femoralis); assay: Cucurbit leaf beetle (Aulacophora femoralis) cucumber leaf dip test; settings: after 7 days
Protocol: as §1, §2, §3, §4
Leaves of cucumber were immersed in the test solution at the appropriate concentration, and the leaves were dried in air. The leaves were then put in a plastic cup containing sterilized black soil and five Aulacophora femoralis at second instar larvae were released in the cup. The cups were placed in a temperature-controlled chamber at 25° C. After 7 days, the number of dead larvae was counted, and thus the insecticidal activity was calculated. An insecticidal activity of 100% means that all larvae were killed, whereas an insecticidal activity of 0% means that no larva was killed.

[3] = system: Larvae of Spodoptera litura; assay: Larvae of Spodoptera litura, method using artificial feeds; settings: artificial feed, after 7 days
Protocol: as §1, §2, §3, §4
[A Method Using Artificial Feeds (Trade Name: Insecta LFM, Manufactured by Nosan Corporation)]
Powdery artificial feeds (2.3 g) were added to a plastic cup (diameter: 7.5 cm, height: 4 cm) to achieve a certain thickness. Water-diluted liquid (5 ml) of the active compound prepared above having predetermined concentration was evenly poured thereto and allowed to stand until the feeds were solidified. Five of the 3rd-instar larvae of Spodoptera litura were released in respective cups, and covered. The cups were put in a temperature controlled room at 25° C. and humidity of 50 to 60%, and the number of dead larvae after 7 days was determined to calculate the pesticidal ratio. 100% pesticidal ratio means death of all the larvae, while 0% pesticidal ratio means no dead larvae.

[4] = active compound concentration 20 ppm
[5] = active compound concentration 4 ppm

Compound | acaricidal activity [1, 4] | insecticidal activity [2, 4] | insecticidal activity (pesticidal ratio) [3, 4] | insecticidal activity [2, 5] | insecticidal activity (pesticidal ratio) [3, 5] | acaricidal activity [1, 5]
O=C(NCc1ccc(N2CCC(c3cc(Cl)c(Cl)c(Cl)c3)(C(F)(F)F)C2O)cc1Br)C1CC1 (mixture of isomers) [A1-165] | 100% | 100% | 100% |  |  | 
CCC(=O)NCc1ccc(N2CCC(c3cc(C(F)(F)F)cc(C(F)(F)F)c3)(C(F)(F)F)C2O)cc1C (mixture of isomers) [A1-184] | 100% | 100% | 100% |  |  | 
Cc1cc(N2CCC(c3cc(C(F)(F)F)cc(C(F)(F)F)c3)(C(F)(F)F)C2O)ccc1CNC(=O)C1CC1 (mixture of isomers) [A1-187] | 100% | 100% | 100% |  |  | 
CC(=O)NCc1ccc(N2CCC(c3cc(C(F)(F)F)cc(C(F)(F)F)c3)(C(F)(F)F)C2O)cc1F (mixture of isomers) [A1-205] | 100% | 100% | 100% |  |  | 
CCC(=O)NCc1ccc(N2CCC(c3cc(C(F)(F)F)cc(C(F)(F)F)c3)(C(F)(F)F)C2O)cc1F (mixture of isomers) [A1-206] | 100% | 100% | 100% |  |  | 
O=C(NCc1ccc(N2CCC(c3cc(C(F)(F)F)cc(C(F)(F)F)c3)(C(F)(F)F)C2O)cc1F)C1CC1 (mixture of isomers) [A1-209] | 100% | 100% | 100% |  |  | 
CC(NC(=O)C1CC1)c1ccc(N2CCC(c3cc(Cl)c(Cl)c(Cl)c3)(C(F)(F)F)C2O)cc1 (mixture of isomers) [A2-16] | 100% | 100% | 100% |  |  | 
CSCC(=O)NCc1ccc(N2CCC(c3cc(C(F)(F)F)cc(C(F)(F)F)c3)(C(F)(F)F)C2O)nc1Br (mixture of isomers) [A3-163] | 100% | 100% | 100% | 100% | 100% | 
C[S+]([O-])CC(=O)NCc1ccc(N2CCC(c3cc(C(F)(F)F)cc(C(F)(F)F)c3)(C(F)(F)F)C2O)nc1Br (mixture of isomers) [A3-164] | 98% | 100% | 100% | 100% | 100% | 
CCC(=O)NCc1ccc(N2CCC(c3cc(Cl)c(F)c(Cl)c3)(C(F)(F)F)C2O)nc1C(F)(F)F (mixture of isomers) [A3-200] | 100% | 100% | 100% |  |  | 
O=C(NCc1ccc(N2CCC(c3cc(Cl)c(F)c(Cl)c3)(C(F)(F)F)C2O)nc1C(F)(F)F)C1CC1 (mixture of isomers) [A3-203] | 100% | 100% | 100% |  |  | 
CCC(=O)NCc1ccc(N2CCC(c3cc(Cl)c(F)c(Cl)c3F)(C(F)(F)F)C2O)nc1C(F)(F)F (mixture of isomers) [A3-211] | 100% | 100% | 100% | 100% | 100% | 100%
CCC(=O)NCc1ccc(N2CCC(c3cc(Cl)cc(C(F)(F)F)c3)(C(F)(F)F)C2O)nc1C(F)(F)F (mixture of isomers) [A3-266] | 100% | 100% | 100% |  |  | 
O=C(NCc1ccc(N2CCC(c3cc(Cl)cc(C(F)(F)F)c3)(C(F)(F)F)C2O)nc1C(F)(F)F)C1CC1 (mixture of isomers) [A3-269] | 100% | 100% | 100% |  |  | 
CCC(=O)NCc1ccc(N2CCC(c3cccc(C(F)(F)F)c3)(C(F)(F)F)C2O)cc1C(F)(F)F (racemic) [A1-294] | 100% | 100% | 100% |  |  | 
O=C(NCc1ccc(N2CCC(c3cccc(C(F)(F)F)c3)(C(F)(F)F)C2O)cc1C(F)(F)F)C1CC1 (racemic) [A1-297] | 100% | 100% | 100% |  |  | 
CCC(=O)NCc1ccc(N2CCC(c3ccc(F)c(C(F)(F)F)c3)(C(F)(F)F)C2O)cc1C(F)(F)F (racemic) [A1-305] | 100% | 100% | 100% |  |  | 
O=C(NCc1ccc(N2CCC(c3ccc(F)c(C(F)(F)F)c3)(C(F)(F)F)C2O)cc1C(F)(F)F)C1CC1 (racemic) [A1-308] | 100% | 100% | 100% |  |  | 
CCC(=O)NCc1ccc(N2CCC(c3cccc(C(F)(F)F)c3)(C(F)(F)F)C2O)nc1C(F)(F)F (racemic) [A3-222] | 100% | 100% | 100% |  |  | 
O=C(NCc1ccc(N2CCC(c3cccc(C(F)(F)F)c3)(C(F)(F)F)C2O)nc1C(F)(F)F)C1CC1 (racemic) [A3-225] | 100% | 100% | 100% |  |  | 
O=C(CC(F)(F)F)NCc1ccc(N2CCC(c3cccc(C(F)(F)F)c3)(C(F)(F)F)C2O)nc1C(F)(F)F (racemic) [A3-227] | 100% | 100% | 100% |  |  | 
O=C(NCc1ccc(N2CCC(c3cc(Cl)cc(Cl)c3)(C(F)(F)F)C2O)cc1Cl)C1CC1 (stereo not shown) [A1-5] | 100% | 100% | 100% |  |  | 
O=C(CC(F)(F)F)NCc1ccc(N2CCC(c3cc(Cl)cc(Cl)c3)(C(F)(F)F)C2O)cc1Cl (stereo not shown) [A1-7] | 100% | 100% | 100% |  |  | 
CCC(=O)NCc1ccc(N2CCC(c3cc(Cl)c(Cl)c(Cl)c3)(C(F)(F)F)C2O)cc1Cl (stereo not shown) [A1-13] | 100% | 100% | 100% |  |  | 
CC(=O)NCc1ccc(N2CCC(c3cc(C(F)(F)F)cc(C(F)(F)F)c3)(C(F)(F)F)C2O)cc1Cl (stereo not shown) [A1-23] | 100% | 100% | 100% |  |  | 
CCC(=O)NCc1ccc(N2CCC(c3cc(C(F)(F)F)cc(C(F)(F)F)c3)(C(F)(F)F)C2O)cc1Cl (stereo not shown) [A1-24] | 100% | 100% | 100% |  |  | 
COCCC(=O)NCc1ccc(N2CCC(c3cc(C(F)(F)F)cc(C(F)(F)F)c3)(C(F)(F)F)C2O)cc1Cl (stereo not shown) [A1-30] | 100% | 100% | 100% |  |  | 
CSCC(=O)NCc1ccc(N2CCC(c3cc(C(F)(F)F)cc(C(F)(F)F)c3)(C(F)(F)F)C2O)cc1Cl (stereo not shown) [A1-31] | 100% | 100% | 100% |  |  | 
CS(=O)(=O)CC(=O)NCc1ccc(N2CCC(c3cc(C(F)(F)F)cc(C(F)(F)F)c3)(C(F)(F)F)C2O)cc1Cl (stereo not shown) [A1-33] | 100% | 100% | 100% |  |  | 
